We go through 64 compounds from a melting point compilation (Tetko et al.; mined from patent text by program, amines drawn as free bases though some values may be those of a salt).

Molecules are shown by their SMILES.

What is called melting point is the temperature, or range, at which the solid turns liquid.

As to `CC(=O)Nc1ccc(C=[N+]([O-])Cc2ccccc2)cc1`, the melting point was in the range of 231 to 238 °C.

Take `Clc1ccc2[nH]cc(C3=CCN(CCOc4ccccc4)CC3)c2c1`: the melting point was determined as 172 °C.

With `[N-]=[N+]=Nc1nc(N)c2ncn(COCCO)c2n1`, the melting point is 191 to 192 °C.

`COc1ccc(C(=C/C=C/C(=O)O)c2ccc(OC)cc2)cc1`: the melting point lay within 187 to 189 °C.

As to `COc1cc2cc(-c3ccncc3)oc2cc1OC`, the melting point is 227 to 229 °C.

On to `CC/C(=C(/C)C#N)c1cccc(O)c1`, for which the melting point fell in the range of 80 to 83 °C.

Consider `CC(C)n1nc(-c2sc(C(=O)NC3CC3)nc2-c2ccccc2F)ccc1=O`, for which the melting point lay in the range of 134 to 135 °C.

With `COc1cccc(-c2ccc3cc(OC)ccc3c2C(=O)c2ccc(O)cc2)c1`, the melting point fell in the range of 158 to 159 °C.

`O=C1NCN(c2ccc(F)cc2)C12CCN(C1CCC(c3ccc(F)cc3)(c3ccc(F)cc3)CC1)CC2` displayed a melting point of 237 to 240 °C.

On to `C#CCn1ccn(C)c1=O`, for which the melting point was in the range of 69 to 72 °C.

Regarding `CCOC(=O)CN1C(=O)C(C(C)C)N(C(C)=O)C=C1c1ccccc1` (racemic), the melting point was in the range of 96 to 98 °C.

Consider `O=C1c2cccc3cccc(c23)C(=O)N1CCCO`, for which the melting point lay in the range of 115 to 118 °C.

In turn, `COc1cc2nc(-c3ccccn3)nc(N)c2cc1OC` yielded a melting point of 248 to 251 °C.

As for `O=C(c1ccccc1)N1CC2C(C1)C2Nc1ncc2cc(-c3ccccc3Cl)c(=O)n(-c3ccc(F)cc3)c2n1` (centres undefined), the melting point lay in the range of 242 to 244 °C.

`CCc1nc2c(N)nc3cc(-c4ccc(F)nc4)cnc3c2n1CC(C)(C)O` showed a melting point of 250 to 251 °C.

Turning to `C=CCC(C(=O)OC)C1(C)CCCc2c1[nH]c1ccccc21` (centres undefined), the melting point lay in the range of 115 to 116 °C.

`O=[N+]([O-])c1ccc(C2OCCO2)nc1` gave a melting point of 104 to 105 °C.

Compound `Cn1cnnc1C(c1ccc(Cl)cc1)c1ccc2c(c1)c(-c1cccc(Cl)c1)cc(=O)n2C` (centres undefined) registered a melting point of 153 °C.

Consider `CN1CCCC2CCCC(N(C)C(=O)Cc3ccc(Cl)c(Cl)c3)C21` (centres undefined), for which the melting point is 92 °C.

With `COC(=O)CSCCn1cc(C)c(=O)[nH]c1=O`, the melting point came to 75 °C.

As for `CS(=O)(=O)c1nnc(-c2ccc3occ(-c4ccc(OC(F)(F)F)cc4)c3c2)o1`, the melting point was in the range of 196 to 197 °C.

In the case of `CCN(CC)CCn1sc2nc(-c3ccccc3)ncc2c1=O`, the melting point lay within 106 to 107 °C.

In turn, `CCOC(=O)c1ccc(N2CCC(NC[C@H](O)COc3ccc(O)c(S(C)(=O)=O)c3)CC2)cc1` displayed a melting point of 83 to 85 °C.

In turn, `Cc1ccc(CCCNCC(O)c2cc3ccccc3o2)cc1` (centres undefined) displayed a melting point of 118 to 119 °C.

`CC1(C)C(=O)NC(=O)c2c1ccc(N)c2[N+](=O)[O-]`: the melting point was in the range of 259 to 263 °C.

As for `O=C1C=CC(=O)N1c1ccc(Cl)cc1`, the melting point was 109 to 110 °C.

In the case of `COc1ccc(C2(c3ccc(OC)cc3)C(c3ccccc3)C2(Cl)Cl)cc1` (centres undefined), the melting point fell in the range of 124 to 125 °C.

`Cc1oc(-c2cccnc2)nc1CCl` had a melting point of 87 to 88 °C.

Turning to `COc1c(C2CCN(CCCCNC(=O)c3ccc(-c4ccc(Cl)s4)nc3)CC2)ccc2c1CCCC2`, the melting point is 175 to 177 °C.

As to `CSc1sc(-c2cccnc2)c2c1C(=O)C(=CO)C(C)(C)C2`, the melting point was 154 to 156 °C.

`CCCCCCCCCCCCc1cnn(C(C(=O)O)c2ccccc2)n1` (centres undefined) showed a melting point of 94 to 98 °C.

Compound `NC1=Nc2ccc(Cl)cc2C2CCCC12F` (centres undefined) had a melting point of 223 °C.

Compound `CCCCCCCCCCCCCCCCCCN1CC(O)C1` showed a melting point of 75.5 to 78 °C.

The compound `O=C(O)C=Cc1ccc(OCC2CN(c3ccccc3)C(=O)O2)cc1` (centres undefined) had a melting point of 239 to 240 °C.

With `CCCCCCCCCCCCCCCCCCOc1cc2ccccc2cc1O`, the melting point lay in the range of 60 to 62 °C.

For the compound `CC(=O)OCCOc1ccc2oc3cc(-c4nnn[nH]4)ccc3c(=O)c2c1`, the melting point lay within 216 to 218 °C.

For the compound `O=C1COc2cc(F)c(NC(=O)c3ccccc3[N+](=O)[O-])cc2N1`, the melting point was > 248 °C.

As to `CC=Cc1ccc(CCNS(=O)(=O)c2ccc(Cl)cc2)cc1`, the melting point is 153 to 155 °C.

For the compound `COc1cc2c(Nc3cc(OC)c(OC)c(OC)c3)c(C#N)cnc2cc1/C=C/CCN1CCN(C)CC1`, the melting point fell in the range of 122 to 124 °C.

`Cc1cccc2cc3c(=O)n(C)cc(C(=O)N[C@@H](C)C(=O)N(C)C)c3nc12` showed a melting point of 268 to 274 °C.

`O=C(O)CCCOc1cccc(CCCCCCOc2cc(-c3ccsc3)cc(-c3ccc4c(c3)OCO4)c2)c1CCC(=O)O` gave a melting point of 110 to 112 °C.

With `N#Cc1cc(C(=O)Cl)n(/C=C/c2ccccc2)c1`, the melting point is 119 to 121 °C.

`N#CCC(O)(c1ccc(Cl)cc1)c1ccc(-c2ccc(Cl)cc2)cc1` (centres undefined): the melting point turned out to be 123 °C.

Regarding `CCOC(=O)C(=CN(C)C1(CO)CC1)C(=O)c1c(F)c(F)c(F)c(F)c1F`, the melting point lay in the range of 74.5 to 76 °C.

`Nc1ccc(Nc2ccccc2[N+](=O)[O-])cc1`: the melting point lay within 110 to 112 °C.

In the case of `O=C(O)Cn1cc(Cc2cccc([N+](=O)[O-])c2)c2ccccc21`, the melting point fell in the range of 163 to 165 °C.

`N[C@@H]1C(=O)N[C@@H]1COC(=O)c1ccccc1` (relative stereo) gave a melting point of 150 to 151 °C.

In turn, `Cc1noc(NS(=O)(=O)c2ccccc2-c2cc3ccccc3[nH]2)c1C` had a melting point of 172 to 175 °C.

For the compound `Nc1ncn(C[C@H](O)COC(c2ccccc2)(c2ccccc2)c2ccccc2)c(=O)n1`, the melting point lay within 130 to 132 °C.

Turning to `CCOC(=O)c1cccc(OCCCCCCCc2cc(C)no2)c1`, the melting point was 16 to 18 °C.

Compound `CN(C)Cc1ccc2n1Cc1ccccc1N(C(=O)c1ccc(-c3ccccc3)cc1)C2` showed a melting point of 85 to 87 °C.

The compound `Cn1c(=O)c(Oc2ccc(F)cc2F)cc2cnc(Cl)cc21` showed a melting point of 168 to 170 °C.

Compound `BrCCCCCCCOc1ccc2c(c1)OCO2` came in with a melting point of 45 to 47 °C.

Compound `CNC(=O)C1N=C(c2ccccc2)c2cc(Cl)ccc2NC1=O` (centres undefined) registered a melting point of 294 °C.

For `CCCCOc1ccc(S(=O)(=O)N2CC(NCC(O)c3ccc(O)c(NS(C)(=O)=O)c3)C2)cc1` (centres undefined), the melting point was in the range of 67 to 70 °C.

For `COC(=O)c1cn2c3c(c(N4CCCC4)c(F)cc3c1=O)CCN2C`, the melting point fell in the range of 203 to 206 °C.

In the case of `Cc1nc2c(OCc3ccccc3F)cccn2c1CC#N`, the melting point was 172 to 173 °C.

`CSc1nc(CC2CCN(c3ccc(F)cc3)CC2)nc(C(=O)NCC(=O)O)c1O` displayed a melting point of 228 to 230 °C.

`O=C(CN1C(=O)c2ccccc2C1=O)Nc1ccccc1Cc1ccccc1` showed a melting point of 232 °C.

In turn, `CC(=O)Oc1cnccc1CCCOc1cccnc1Oc1ccccc1` displayed a melting point of 79 to 80 °C.

In turn, `Nc1cc(S(=O)c2ccccc2)ccc1Cl` (centres undefined) registered a melting point of 89 to 90 °C.

Compound `COC(=O)[C@H](CO)NC(=O)c1ncn2c1CN(C)C(=O)c1ccccc1-2` displayed a melting point of 180 to 181 °C.

`COCCCCCC(=NO)c1ccc(Cl)c(Cl)c1` showed a melting point of 53 to 54.5 °C.

Turning to `COc1cc(OC)nc(NC(=O)NS(=O)(=O)N=CN(C)CSC)n1`, the melting point was 167 to 168 °C.
